Laboratory results as given in patent publication US6613932B1, “Prostaglandin derivatives” (Taisho Pharmaceutical Co., Ltd., priority 1999, dated 2003).

Tested on: human vascular smooth muscle cells
Test: Determination of DNA synthesis inhibition activity (3H-thymidine intake) to human vascular smooth muscle cells
Type: cell-based
Conditions: for Growth inhibition rate (per cent to control): 1 × 10^−5 M compound added, 3H-thymidine intake after culturing 24 hours, compared with vehicle-treated group as control; for inhibiting activity on the growth of human vascular smooth muscle cells: summary in words of Table 1 (1 × 10^−5 M)
Description: Experiment [Determination of DNA synthesis inhibition activity of PGE1 derivatives to human vascular smooth muscle cells]
On a 24-well plate (manufactured by Corning Co.), 1×10^4 cells/well of quintic culture cells of vascular cells derived from normal human aorta (produced by Kurabo Co.) were inoculated and cultured for 2 days. The medium was exchanged from the growth medium (SG2: produced by Kurabo Co.) to the basal medium (SB2: produced by Kurabo Co.), and cultured for 24 hours, to which was added the growth medium (SG2) containing an ethanol solution of the test compound. ^3H-Thymidine (produced by Daiichi Chemicals Co.) was added in an amount of 0.01 mci/well and, after culturing for 24 hours, the cultured supernatant was removed by suction, followed by washing with a phosphate buffer solution (PBS). 5% Trichloroacetic acid (TCA) was added and, after allowing to stand at 4° C. for 20 minutes, the mixture was washed once with TCA. The mixture was washed with PBS, and dissolved in 0.5 M aqueous potassium hydroxide solution. Intake of ^3H-thymidine was determined using 20 μl of the aqueous potassium hydroxide solution dissolving the cells which incorporated ^3H-thymidine in the nucleus by means of a liquid scintillation counter (manufactured by Hewlett-Packard Co.).
Note: The test compounds were each used as an ethanol solution and compared with a vehicle-treated group as control.

Compound	Growth inhibition rate (per cent to control)	inhibiting activity on the growth of human vascular smooth muscle cells
CCCC1(C(O)C/C=C/C2C(SCCO)CC(=O)C2CCCCCCC(=O)OC)CCC1 [Compound 23, (11S,16S)-11,15-dideoxy-11-(2-hydroxyethylthio)-16-hydroxy-17,17-trimethylene-PGE1 methyl ester]	91.5 per cent to control	high inhibiting activity
CCCC1(C(O)C/C=C/C2C(SCCO)CC(=O)C2CCCC/C=C/C(=O)OC)CCC1 [Compound 29, (2E,11R,16R)-11,15-Dideoxy-11-(2-hydroxyethylthio)-16-hydroxy-17,17-trimethylene-2,3-didehydro-PGE1 methyl ester]	100 per cent to control	high inhibiting activity
CCCC1(C(O)C/C=C/C2C(SCCO)CC(=O)C2CCCC/C=C/C(=O)OC)CCC1 [Compound 32, (2E,11R,16S)-11,15-Dideoxy-11-(2-hydroxyethylthio)-16-hydroxy-17,17-trimethylene-2,3-didehydro-PGE1 methyl ester]	100 per cent to control	high inhibiting activity
CCCC1(C(O)C/C=C/C2C(SCCCO)CC(=O)C2CCCCCCC(=O)OC)CCC1 [Compound 41, (11R,16S)-11,15-Dideoxy-11-(3-hydroxypropylthio)-16-hydroxy-17,17-trimethylene-PGE1 methyl ester]	93.2 per cent to control	high inhibiting activity
CCCC1(C(O)C/C=C/C2C(SCC(N)C(=O)OC)CC(=O)C2CCCCCCC(=O)OC)CCC1 [Compound 54, (11R,16S)-11,15-Dideoxy-11-[(2R)-2-methoxycarbonyl-2-aminoethylthio]-16-hydroxy-17,17-trimethylene-PGE1 methyl ester]	100 per cent to control	high inhibiting activity
CCCC1(C(O)C/C=C/C2C(SCC(N)C(=O)OC)CC(=O)C2CCCCCCC(=O)OC)CCC1 [Compound 55, (11S,16S)-11,15-dideoxy-11-[(2R)-2-methoxycarbonyl-2-aminoethylthio]-16-hydroxy-17,17-trimethylene-PGE1 methyl ester]	94.3 per cent to control	high inhibiting activity
